Measured values reported in ChEMBL document CHEMBL4507259 (2021).

How the values were obtained:
SK-MEL-1 = experiment: SKMEL1 cell line Proliferation assay; type: functional, Homo sapiens; settings: Compound concentration 10 uM; time 5 day
[1] = target: GABA-A receptor; anion channel (Rattus norvegicus) (UniProt O09028+P15431+P18506+P18508+P19969+P20236+P23574+P23576+P28471+P28473+P30191+P62813+P63079+P63138+Q91ZM7+Q9ES14); settings: Compound concentration 10.0 uM
[2] = target: SRSF protein kinase 2 (Homo sapiens) (UniProt P78362); settings: Compound concentration 1000.0 nM
[3] = target: Serine/threonine-protein kinase 10 (Homo sapiens) (UniProt O94804); settings: Compound concentration 1000.0 nM
[4] = target: Ephrin type-A receptor 6 (Homo sapiens) (UniProt Q9UF33); settings: Compound concentration 1000.0 nM
NU-DHL-1 = experiment: NuDHL1 cell line Proliferation assay; type: functional, Homo sapiens; settings: Compound concentration 10 uM; time 3 day
A-375 = experiment: A375 cell line Proliferation assay; type: functional, Homo sapiens; settings: Compound concentration 10 uM; time 5 day
[5] = target: P2X receptor (Rattus norvegicus) (UniProt P51579+P49653+P51578+Q64663+P47824+P51577+P49654); experiment: P2X CEREP ligand profiling; type: protein assay; settings: filed as agonist; Compound concentration 10.0 uM
[6] = target: SNF-related serine/threonine-protein kinase (Homo sapiens) (UniProt Q9NRH2); settings: Compound concentration 1000.0 nM
Raji = experiment: Raji cell line Proliferation assay; type: functional, Homo sapiens; settings: Compound concentration 10 uM; time 3 day
[7] = target: Casein kinase I isoform gamma-2 (Homo sapiens) (UniProt P78368); settings: Compound concentration 1000.0 nM
SK-MEL-5 = experiment: SKMEL5 cell line Proliferation assay; type: functional, Homo sapiens; settings: Compound concentration 10 uM; time 5 day
LNCaP-Clone-FGC = experiment: LnCaP -FGC cell line Proliferation assay; type: functional, Homo sapiens; settings: Compound concentration 10 uM; time 5 day
NCI-H1373 = experiment: H1373 cell line Proliferation assay; type: functional, Homo sapiens; settings: Compound concentration 10 uM; time 3 day
[8] = target: Adenosine receptor A3 (Homo sapiens) (UniProt P0DMS8); experiment: A3 (h) CEREP ligand profiling; settings: filed as agonist, Compound concentration 10.0 uM
[9] = target: Histamine H1 receptor (Homo sapiens) (UniProt P35367); experiment: H1 (h) CEREP ligand profiling; settings: filed as antagonist, Compound concentration 10.0 uM
[10] = target: Sigma intracellular receptor 2 (Homo sapiens, UniProt Q5BJF2); settings: Compound concentration 10.0 uM
[11] = target: cGMP-dependent protein kinase 1 (Homo sapiens) (UniProt Q13976); settings: Compound concentration 1000.0 nM
[12] = target: Cyclin-dependent kinase 13 (Homo sapiens) (UniProt Q14004); settings: Compound concentration 1000.0 nM
NCI-H661 = experiment: H661 cell line Proliferation assay; type: functional, Homo sapiens; settings: Compound concentration 10 uM; time 3 day
GA-10 = experiment: GA10 cell line Proliferation assay; type: functional, Homo sapiens; settings: Compound concentration 10 uM; time 3 day
[13] = test system: Hepatocyte growth factor receptor (Homo sapiens), P08581 [M1250T]; settings: Compound concentration 1000.0 nM
[14] = target: Phosphatidylinositol 4,5-bisphosphate 3-kinase catalytic subunit alpha isoform (Homo sapiens) (UniProt P42336); settings: Compound concentration 1000.0 nM
[15] = target: Activated CDC42 kinase 1 (Homo sapiens) (UniProt Q07912); settings: Compound concentration 1000.0 nM
[16] = target: Serine/threonine-protein kinase Nek6 (Homo sapiens) (UniProt Q9HC98); settings: Compound concentration 1000.0 nM
SC1 = experiment: Sc1 cell line Proliferation assay; type: functional, Homo sapiens; settings: Compound concentration 10 uM; time 3 day
[17] = target: Serine/threonine-protein kinase Nek7 (Homo sapiens) (UniProt Q8TDX7); settings: Compound concentration 1000.0 nM
Kasumi 1 = experiment: Kasumi-1 cell line Proliferation assay; type: functional, Homo sapiens; settings: Compound concentration 10 uM; time 3 day
[18] = target: Casein kinase II subunit alpha (Homo sapiens) (UniProt P68400); settings: Compound concentration 1000.0 nM
HCC1143 = experiment: HCC1143 cell line Proliferation assay; type: functional, Homo sapiens; settings: Compound concentration 10 uM; time 5 day
[19] = target: Tyrosine-protein kinase CSK (Homo sapiens) (UniProt P41240); settings: Compound concentration 1000.0 nM
[20] = target: Histone acetyltransferase KAT6B (Homo sapiens) (UniProt Q8WYB5); experiment: MYST4 (HAT) CEREP ligand profiling; settings: Compound concentration 10.0 uM
[21] = target: Mitogen-activated protein kinase 15 (Homo sapiens) (UniProt Q8TD08); settings: Compound concentration 1000.0 nM
U-937 = experiment: U937 cell line Proliferation assay; type: functional, Homo sapiens; settings: Compound concentration 10 uM; time 3 day
JVM-2 = experiment: JVM-2 cell line Proliferation assay; type: functional, Homo sapiens; settings: Compound concentration 10 uM; time 3 day
[22] = target: Mitogen-activated protein kinase kinase kinase 14 (Homo sapiens) (UniProt Q99558); settings: Compound concentration 1000.0 nM
NCI-H510A = experiment: H510A cell line Proliferation assay; type: functional, Homo sapiens; settings: Compound concentration 10 uM; time 4 day
[23] = target: Beta-2 adrenergic receptor (Homo sapiens) (UniProt P07550); experiment: beta 2 (h) CEREP ligand profiling; settings: filed as agonist, Compound concentration 10.0 uM
[24] = test system: Receptor-type tyrosine-protein kinase FLT3 (Homo sapiens), P36888 [UNDEFINED MUTATION]; settings: Compound concentration 1000.0 nM
[25] = target: Activin receptor type-1 (Homo sapiens) (UniProt Q04771); settings: Compound concentration 1000.0 nM
[26] = target: Adenosine receptor A2b (Homo sapiens) (UniProt P29275); experiment: A2B (h) CEREP ligand profiling; settings: filed as antagonist, Compound concentration 10.0 uM
[27] = target: CREB-binding protein/Histone acetyltransferase p300 (Homo sapiens, UniProt Q09472+Q92793); experiment: Inhibition of H3K27Ac (DU-145); type: cell-based
[28] = target: Endothelin receptor type B (Homo sapiens) (UniProt P24530); experiment: ETB (h) CEREP ligand profiling; settings: filed as agonist, Compound concentration 10.0 uM

Sequence of Serine/threonine-protein kinase 10 (Homo sapiens) (O94804 whole entry, looked up): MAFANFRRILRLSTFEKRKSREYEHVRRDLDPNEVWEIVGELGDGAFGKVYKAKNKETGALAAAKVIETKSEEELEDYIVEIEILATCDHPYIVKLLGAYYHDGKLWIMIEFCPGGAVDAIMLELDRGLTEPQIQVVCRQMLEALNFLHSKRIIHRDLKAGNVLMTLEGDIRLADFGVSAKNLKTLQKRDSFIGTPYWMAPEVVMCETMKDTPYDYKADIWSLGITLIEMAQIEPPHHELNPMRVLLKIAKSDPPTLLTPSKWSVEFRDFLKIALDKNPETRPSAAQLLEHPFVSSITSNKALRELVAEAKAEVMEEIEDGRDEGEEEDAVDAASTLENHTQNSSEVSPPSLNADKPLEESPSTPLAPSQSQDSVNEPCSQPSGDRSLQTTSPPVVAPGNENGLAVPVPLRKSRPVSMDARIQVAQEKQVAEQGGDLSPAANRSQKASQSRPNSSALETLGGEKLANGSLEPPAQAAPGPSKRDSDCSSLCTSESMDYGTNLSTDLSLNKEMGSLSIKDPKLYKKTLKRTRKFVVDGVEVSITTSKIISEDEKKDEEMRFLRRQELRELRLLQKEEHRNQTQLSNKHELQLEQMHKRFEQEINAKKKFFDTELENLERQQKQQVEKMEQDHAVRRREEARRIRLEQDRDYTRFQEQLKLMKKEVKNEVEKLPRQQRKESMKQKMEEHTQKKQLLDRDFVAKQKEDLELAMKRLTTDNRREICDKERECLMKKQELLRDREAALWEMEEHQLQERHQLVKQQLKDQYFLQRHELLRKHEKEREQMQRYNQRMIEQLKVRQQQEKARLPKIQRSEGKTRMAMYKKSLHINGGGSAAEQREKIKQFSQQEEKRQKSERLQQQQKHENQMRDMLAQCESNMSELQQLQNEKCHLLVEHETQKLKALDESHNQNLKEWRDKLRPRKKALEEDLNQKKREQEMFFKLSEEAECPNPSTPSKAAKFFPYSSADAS
Sequence of Serine/threonine-protein kinase Nek6 (Homo sapiens) (Q9HC98 whole entry): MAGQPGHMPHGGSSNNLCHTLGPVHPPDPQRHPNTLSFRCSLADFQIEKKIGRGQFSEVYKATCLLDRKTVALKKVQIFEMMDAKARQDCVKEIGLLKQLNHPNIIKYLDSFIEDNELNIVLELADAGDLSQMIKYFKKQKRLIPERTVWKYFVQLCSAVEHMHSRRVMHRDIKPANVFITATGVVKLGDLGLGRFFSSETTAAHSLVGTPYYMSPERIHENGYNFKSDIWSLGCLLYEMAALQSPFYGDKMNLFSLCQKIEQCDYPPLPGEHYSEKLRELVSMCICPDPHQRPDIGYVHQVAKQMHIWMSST
Sequence of SNF-related serine/threonine-protein kinase (Homo sapiens) (Q9NRH2 whole entry): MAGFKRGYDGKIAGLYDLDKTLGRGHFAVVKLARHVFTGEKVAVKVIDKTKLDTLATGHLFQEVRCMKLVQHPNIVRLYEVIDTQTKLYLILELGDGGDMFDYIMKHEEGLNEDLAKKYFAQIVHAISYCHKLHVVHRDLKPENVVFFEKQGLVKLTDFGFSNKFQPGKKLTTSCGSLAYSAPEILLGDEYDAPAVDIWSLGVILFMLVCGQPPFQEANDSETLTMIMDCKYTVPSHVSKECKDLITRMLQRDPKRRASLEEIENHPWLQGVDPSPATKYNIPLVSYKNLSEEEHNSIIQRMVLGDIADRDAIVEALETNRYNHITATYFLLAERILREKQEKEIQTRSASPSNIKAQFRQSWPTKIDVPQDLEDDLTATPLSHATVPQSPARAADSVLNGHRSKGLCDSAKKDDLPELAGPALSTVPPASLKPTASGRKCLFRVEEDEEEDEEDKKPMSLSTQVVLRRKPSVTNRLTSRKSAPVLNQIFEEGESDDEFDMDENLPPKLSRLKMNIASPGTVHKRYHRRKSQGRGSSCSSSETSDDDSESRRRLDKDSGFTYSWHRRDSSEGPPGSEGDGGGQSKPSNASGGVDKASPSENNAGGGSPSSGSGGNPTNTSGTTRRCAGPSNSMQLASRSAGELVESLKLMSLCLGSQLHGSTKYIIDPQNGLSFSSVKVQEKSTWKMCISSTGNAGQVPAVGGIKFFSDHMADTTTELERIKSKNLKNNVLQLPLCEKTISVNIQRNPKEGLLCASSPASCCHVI
Sequence of SRSF protein kinase 2 (Homo sapiens) (P78362 whole entry, looked up): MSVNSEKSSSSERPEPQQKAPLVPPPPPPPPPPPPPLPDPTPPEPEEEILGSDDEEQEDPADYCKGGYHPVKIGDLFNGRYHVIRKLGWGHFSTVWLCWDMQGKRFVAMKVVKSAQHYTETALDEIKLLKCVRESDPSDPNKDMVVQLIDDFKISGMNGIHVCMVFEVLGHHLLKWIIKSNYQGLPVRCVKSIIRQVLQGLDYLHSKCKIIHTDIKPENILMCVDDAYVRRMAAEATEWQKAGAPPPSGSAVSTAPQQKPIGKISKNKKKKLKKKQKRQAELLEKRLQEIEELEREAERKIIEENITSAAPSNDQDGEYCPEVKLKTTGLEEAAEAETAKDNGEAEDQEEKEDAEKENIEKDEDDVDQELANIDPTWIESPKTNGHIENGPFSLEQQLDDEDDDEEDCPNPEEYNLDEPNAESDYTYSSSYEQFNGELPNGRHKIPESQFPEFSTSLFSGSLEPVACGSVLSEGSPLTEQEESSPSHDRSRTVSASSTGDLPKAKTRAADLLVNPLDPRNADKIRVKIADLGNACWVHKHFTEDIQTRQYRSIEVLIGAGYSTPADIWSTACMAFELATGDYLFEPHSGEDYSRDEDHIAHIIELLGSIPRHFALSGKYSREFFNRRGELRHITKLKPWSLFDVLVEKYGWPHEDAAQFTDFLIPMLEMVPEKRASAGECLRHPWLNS
Sequence of Serine/threonine-protein kinase Nek7 (Homo sapiens) (Q8TDX7 whole entry, looked up): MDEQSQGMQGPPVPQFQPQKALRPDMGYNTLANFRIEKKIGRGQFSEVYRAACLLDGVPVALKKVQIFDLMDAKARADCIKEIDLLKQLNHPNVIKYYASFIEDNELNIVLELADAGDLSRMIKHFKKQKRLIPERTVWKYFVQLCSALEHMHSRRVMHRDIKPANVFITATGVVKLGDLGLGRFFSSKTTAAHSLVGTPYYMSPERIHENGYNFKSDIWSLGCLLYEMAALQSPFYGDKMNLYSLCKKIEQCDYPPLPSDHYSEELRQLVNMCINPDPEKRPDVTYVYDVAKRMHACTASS
Sequence of Ephrin type-A receptor 6 (Homo sapiens) (Q9UF33 whole entry): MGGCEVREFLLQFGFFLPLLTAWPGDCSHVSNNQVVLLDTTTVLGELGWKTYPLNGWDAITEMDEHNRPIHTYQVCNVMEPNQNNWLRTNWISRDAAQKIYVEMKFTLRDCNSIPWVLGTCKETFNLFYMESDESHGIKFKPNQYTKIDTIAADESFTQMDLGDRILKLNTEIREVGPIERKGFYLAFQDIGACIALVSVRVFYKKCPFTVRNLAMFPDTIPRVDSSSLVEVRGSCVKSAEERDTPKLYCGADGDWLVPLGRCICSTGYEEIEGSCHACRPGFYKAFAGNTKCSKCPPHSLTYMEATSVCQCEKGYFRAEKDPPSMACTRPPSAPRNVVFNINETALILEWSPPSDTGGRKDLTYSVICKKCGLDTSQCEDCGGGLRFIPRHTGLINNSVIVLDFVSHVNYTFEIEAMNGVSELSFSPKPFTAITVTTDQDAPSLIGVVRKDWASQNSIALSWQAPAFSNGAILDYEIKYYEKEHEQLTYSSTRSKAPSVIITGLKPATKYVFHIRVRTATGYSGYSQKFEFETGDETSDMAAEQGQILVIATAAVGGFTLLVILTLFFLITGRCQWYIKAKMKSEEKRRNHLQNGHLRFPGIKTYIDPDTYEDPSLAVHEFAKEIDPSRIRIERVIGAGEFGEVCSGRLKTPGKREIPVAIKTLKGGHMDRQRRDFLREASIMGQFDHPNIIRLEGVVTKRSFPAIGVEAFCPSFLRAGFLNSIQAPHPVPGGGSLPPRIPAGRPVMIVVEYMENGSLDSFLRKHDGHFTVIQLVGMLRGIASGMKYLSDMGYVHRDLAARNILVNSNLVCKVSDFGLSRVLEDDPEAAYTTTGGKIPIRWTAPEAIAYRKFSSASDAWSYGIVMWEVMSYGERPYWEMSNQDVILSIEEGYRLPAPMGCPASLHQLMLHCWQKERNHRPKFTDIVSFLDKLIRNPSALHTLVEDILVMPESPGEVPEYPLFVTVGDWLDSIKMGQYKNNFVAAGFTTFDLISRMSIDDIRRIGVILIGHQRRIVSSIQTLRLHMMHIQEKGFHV
Sequence of Mitogen-activated protein kinase kinase kinase 14 (Homo sapiens) (Q99558 whole entry, looked up): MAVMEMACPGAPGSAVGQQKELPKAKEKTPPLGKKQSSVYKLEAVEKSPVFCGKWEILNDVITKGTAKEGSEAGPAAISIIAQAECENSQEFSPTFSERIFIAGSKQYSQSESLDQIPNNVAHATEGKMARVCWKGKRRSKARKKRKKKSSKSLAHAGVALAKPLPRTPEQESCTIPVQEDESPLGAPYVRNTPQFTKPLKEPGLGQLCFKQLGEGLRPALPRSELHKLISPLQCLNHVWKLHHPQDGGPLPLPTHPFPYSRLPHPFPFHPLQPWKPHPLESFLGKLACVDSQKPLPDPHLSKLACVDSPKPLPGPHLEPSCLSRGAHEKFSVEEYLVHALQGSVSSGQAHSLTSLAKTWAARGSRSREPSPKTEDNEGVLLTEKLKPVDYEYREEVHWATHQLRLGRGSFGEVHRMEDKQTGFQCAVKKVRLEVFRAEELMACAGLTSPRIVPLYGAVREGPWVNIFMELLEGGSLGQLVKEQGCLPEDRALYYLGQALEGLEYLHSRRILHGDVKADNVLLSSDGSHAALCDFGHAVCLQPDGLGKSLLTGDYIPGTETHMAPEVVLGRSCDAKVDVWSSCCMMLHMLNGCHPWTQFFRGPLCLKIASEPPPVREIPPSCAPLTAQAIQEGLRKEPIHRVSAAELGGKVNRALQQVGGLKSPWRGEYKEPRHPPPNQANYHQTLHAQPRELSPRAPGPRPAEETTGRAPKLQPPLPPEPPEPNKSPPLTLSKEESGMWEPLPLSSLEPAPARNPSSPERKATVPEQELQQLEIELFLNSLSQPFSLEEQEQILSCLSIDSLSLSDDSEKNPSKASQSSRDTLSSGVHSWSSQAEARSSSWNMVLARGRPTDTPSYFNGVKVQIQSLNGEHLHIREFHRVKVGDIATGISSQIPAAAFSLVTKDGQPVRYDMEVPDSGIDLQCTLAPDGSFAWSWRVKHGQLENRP

Row | SMILES | inhibition [1] | residual activity [2] | residual activity [3] | residual activity [4] | inhibition [5] | residual activity [6] | residual activity [7] | inhibition [9] | inhibition [10] | residual activity [11] | residual activity [12] | residual activity [13] | residual activity [14] | residual activity [15] | residual activity [16] | residual activity [17] | residual activity [18] | residual activity [19] | residual activity [21] | residual activity [22] | further results
1 | CNC(=O)Nc1ccc2c(c1)CC[C@@]21OC(=O)N(CC(=O)N(Cc2ccc(F)cc2)[C@@H](C)C(F)(F)F)C1=O [A-485] | 8.97% | 100% | 100% | 79% | 12% | 96% | 87% | 22% | 50% | 100% | 96% | 75% | 83% | 90% | 86% | 91% | 63% | 100% | 74% | 67% | Cell Proliferation EC50 (SK-MEL-1): 0.571 µM; Cell Proliferation EC50 (NU-DHL-1): 0.5301 µM; Cell Proliferation EC50 (A-375): >10 µM; Cell Proliferation EC50 (Raji): 0.4631 µM; Cell Proliferation EC50 (SK-MEL-5): 0.907 µM; Cell Proliferation EC50 (LNCaP-Clone-FGC): 0.26 µM; Cell Proliferation EC50 (NCI-H1373): 2.341 µM; inhibition [8]: 40%; Cell Proliferation EC50 (NCI-H661): 7.664 µM; Cell Proliferation EC50 (GA-10): 1.059 µM; Cell Proliferation EC50 (SC1): 1.689 µM; Cell Proliferation EC50 (Kasumi 1): 0.285 µM; Cell Proliferation EC50 (HCC1143): >10 µM; inhibition [20]: 1.4%; Cell Proliferation EC50 (U-937): >10 µM; Cell Proliferation EC50 (JVM-2): >10 µM; Cell Proliferation EC50 (NCI-H510A): >10 µM
2 | CNC(=O)Nc1ccc2c(c1)[C@@]1(CC2)OC(=O)N(CC(=O)N(Cc2ccc(F)cc2)[C@@H](C)C(F)(F)F)C1=O [A-486] | 9.54% | 100% | 92% | 91% | -5% | 100% | 100% | 7% | 55.5% | 100% | 92% | 100% | 28% | 87% | 100% | 100% | 60% | 100% | 93% | 68% | inhibition [23]: 1%; residual activity [24]: 99%; residual activity [25]: 89%; inhibition [26]: 1%; IC50 [27]: > 10 µM; inhibition [28]: 8%
